# Data: US12448388B2, “PRMT5 inhibitors and uses thereof” (Gilead Sciences, Inc., priority 2023, dated 2025)
# Tested on: HCT116 MTAP-deleted cell lines
# Assay: Cell viability assay (CellTiter-Glo, 7 days), HCT116 MTAP-deleted
# Assay type: cell-based
# Conditions: Homo sapiens, HCT-116; cell viability, HCT116 MTAP-deleted; class symbols; read-out: CC50
# Method in brief: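 HCT116 MTAP-deleted and wild-type cells exposed to serially diluted compound for 7 days at 37 °C, 5% CO2. Viability read by CellTiter-Glo luminescence; CC50 derived per line, with selectivity comparing WT to MTAP-deleted, limited solubility can inflate values marked *.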
row,Compound,CC50 [nM]
1,"Nc1nc2cc(F)c(C(=O)N3CCO[C@@H]4Cc5cc(C6CC6)ccc5[C@@H]43)cc2n2cncc12 [Ff-236, (4-amino-7-fluoroimidazo[1,5-a]quinoxalin-8-yl)((4aS,9aR)-7-cyclopropyl-2,3,9,9a-tetrahydroindeno[2,1-b][1,4]oxazin-4(4aH)-yl)methanone]",100 to 1000
2,"CN(C(=O)c1cc2c(cc1F)nc(N)c1cncn12)[C@@H]1COc2cc(-c3csc(C(F)F)n3)ccc21 [Ff-237, (S)-4-amino-N-(6-(2-(difluoromethyl)thiazol-4-yl)-2,3-dihydrobenzofuran-3-yl)-7-fluoro-N-methylimidazo[1,5-a]quinoxaline-8-carboxamide]",< 100
3,"CN(C(=O)c1cc2c(cc1F)nc(N)c1cncn12)[C@@H]1COc2cc(-c3ccc(C(F)(F)F)cn3)ccc21 [Ff-238, (S)-4-amino-7-fluoro-N-methyl-N-(6-(5-(trifluoromethyl)pyridin-2-yl)-2,3-dihydrobenzofuran-3-yl)imidazo[1,5-a]quinoxaline-8-carboxamide]",< 100
4,"Nc1nc2cc(F)c(C(=O)N3CCO[C@@H]4Cc5cc(-c6ccc(C(F)(F)F)nc6)ccc5[C@@H]43)cc2n2cncc12 [Ff-239, (4-amino-7-fluoroimidazo[1,5-a]quinoxalin-8-yl)((4aS,9aR)-7-(6-(trifluoromethyl)pyridin-3-yl)-2,3,9,9a-tetrahydroindeno[2,1-b][1,4]oxazin-4(4aH)-yl)methanone]",< 100
5,"Nc1nc2cc(F)c(C(=O)N3CCO[C@@H]4Cc5cc(-c6ccc(C(F)(F)F)cc6)ccc5[C@@H]43)cc2n2cncc12 [Ff-240, (4-amino-7-fluoroimidazo[1,5-a]quinoxalin-8-yl)((4aS,9aR)-7-(4-(trifluoromethyl)phenyl)-2,3,9,9a-tetrahydroindeno[2,1-b][1,4]oxazin-4(4aH)-yl)methanone]",100 to 1000
6,"C[C@H]1CN(C(=O)c2ccc3nc(N)c4cncn4c3c2)[C@H]2c3cc(F)c(C(F)(F)F)cc3C[C@H]2O1 [Ff-246, (4-aminoimidazo[1,5-a]quinoxalin-8-yl)((2S,4aS,9aR)-6-fluoro-2-methyl-7-(trifluoromethyl)-2,3,9,9a-tetrahydroindeno[2,1-b][1,4]oxazin-4(4aH)-yl)methanone]",< 100
7,"C[C@H]1CN(C(=O)c2cc3c(cn2)nc(N)c2cncn23)[C@H]2c3cc(F)c(C(F)(F)F)cc3C[C@H]2O1 [Ff-247, (4-aminoimidazo[1,5-a]pyrido[3,4-e]pyrazin-8-yl)((2S,4aS,9aR)-6-fluoro-2-methyl-7-(trifluoromethyl)-2,3,9,9a-tetrahydroindeno[2,1-b][1,4]oxazin-4(4aH)-yl)methanone]",< 100
8,"C[C@@H]1C[C@@H]2Oc3cc(C(F)(F)F)c(F)cc3[C@@H]2N(C(=O)c2cc3c(cc2F)nc(N)c2cncn23)C1 [Ff-248, (4-amino-7-fluoroimidazo[1,5-a]quinoxalin-8-yl)((3R,4aS,9bS)-8-fluoro-3-methyl-7-(trifluoromethyl)-3,4,4a,9b-tetrahydrobenzofuro[3,2-b]pyridin-1(2H)-yl)methanone]",< 100
9,"C[C@@H]1C[C@@H]2Oc3cc(C(F)(F)F)ccc3[C@@H]2N(C(=O)c2cc3c(cc2F)nc(N)c2cncn23)C1 [Ff-251, (4-amino-7-fluoroimidazo[1,5-a]quinoxalin-8-yl)((3R,4aS,9bS)-3-methyl-7-(trifluoromethyl)-3,4,4a,9b-tetrahydrobenzofuro[3,2-b]pyridin-1(2H)-yl)methanone]",< 100
10,"CN(C(=O)c1cc2c(cc1F)nc(N)c1cncn12)[C@H]1c2ccc(C(F)(F)F)cc2[C@@H]2C[C@@H]21 [Ff-253, 4-amino-7-fluoro-N-methyl-N-((1aR,6R,6aS)-3-(trifluoromethyl)-1,1a,6,6a-tetrahydrocyclopropa[a]inden-6-yl)imidazo[1,5-a]quinoxaline-8-carboxamide]",100 to 1000
11,"CN(C(=O)c1cc2c(cn1)nc(N)c1cncn12)[C@H]1c2ccc(C(F)(F)F)cc2[C@@H]2C[C@@H]21 [Ff-254, 4-amino-N-methyl-N-((1aR,6R,6aS)-3-(trifluoromethyl)-1,1a,6,6a-tetrahydrocyclopropa[a]inden-6-yl)imidazo[1,5-a]pyrido[3,4-e]pyrazine-8-carboxamide]",100 to 1000
12,"CN(C(=O)c1cc2c(cc1F)nc(N)c1cncn12)[C@H]1c2ccc(C(F)(F)F)cc2[C@H]2C[C@H]21 [Ff-255, 4-amino-7-fluoro-N-methyl-N-((1aS,6R,6aR)-3-(trifluoromethyl)-1,1a,6,6a-tetrahydrocyclopropa[a]inden-6-yl)imidazo[1,5-a]quinoxaline-8-carboxamide]",100 to 1000
13,"CN(C(=O)c1cc2c(cn1)nc(N)c1cncn12)[C@H]1c2ccc(C(F)(F)F)cc2[C@H]2C[C@H]21 [Ff-256, 4-amino-N-methyl-N-((1aS,6R,6aR)-3-(trifluoromethyl)-1,1a,6,6a-tetrahydrocyclopropa[a]inden-6-yl)imidazo[1,5-a]pyrido[3,4-e]pyrazine-8-carboxamide]",100 to 1000
14,"Nc1nc2cnc(C(=O)N3CCC[C@@H]4Oc5cc(C(F)(F)F)c(Cl)cc5[C@@H]43)cc2n2cncc12 [Ff-259, (4-aminoimidazo[1,5-a]pyrido[3,4-e]pyrazin-8-yl)((4aS,9bS)-8-chloro-7-(trifluoromethyl)-3,4,4a,9b-tetrahydrobenzofuro[3,2-b]pyridin-1(2H)-yl)methanone]",< 100
15,"Nc1nc2cc(F)c(C(=O)N3CCC[C@@H]4Oc5cc(Cl)ccc5[C@@H]43)cc2n2cncc12 [Ff-260, (4-amino-7-fluoroimidazo[1,5-a]quinoxalin-8-yl)((4aS,9bS)-7-chloro-3,4,4a,9b-tetrahydrobenzofuro[3,2-b]pyridin-1(2H)-yl)methanone]",< 100
16,"C[C@@H]1C[C@@H]2Oc3cc(C(F)(F)F)c(F)cc3[C@@H]2N(C(=O)c2cc3c(cn2)nc(N)c2cncn23)C1 [Ff-261, (4-aminoimidazo[1,5-a]pyrido[3,4-e]pyrazin-8-yl)((3R,4aS,9bS)-8-fluoro-3-methyl-7-(trifluoromethyl)-3,4,4a,9b-tetrahydrobenzofuro[3,2-b]pyridin-1(2H)-yl)methanone]",< 100
17,"Nc1nc2ccc(C(=O)N(Cc3ccc(OC(F)F)cc3F)C34CC(C3)C4)cc2n2cncc12 [Ff-264, 4-amino-N-(bicyclo[1.1.1]pentan-1-yl)-N-(4-(difluoromethoxy)-2-fluorobenzyl)imidazo[1,5-a]quinoxaline-8-carboxamide]",100 to 1000
18,"Nc1nc2cc(F)c(C(=O)N(Cc3ccc(OC(F)F)cc3F)C34CC(C3)C4)cc2n2cncc12 [Ff-265, 4-amino-N-(bicyclo[1.1.1]pentan-1-yl)-N-(4-(difluoromethoxy)-2-fluorobenzyl)-7-fluoroimidazo[1,5-a]quinoxaline-8-carboxamide]",< 100
19,"CN(C(=O)c1ccc2nc(N)c3cncn3c2c1)C1CCc2nc(C(F)(F)F)ccc21 (stereo not shown) [Ff-266, 4-amino-N-methyl-N-(2-(trifluoromethyl)-6,7-dihydro-5H-cyclopenta[b]pyridin-5-yl)imidazo[1,5-a]quinoxaline-8-carboxamide]",100 to 1000
20,"Nc1nc2ccc(C(=O)N(Cc3ccc(C(F)(F)F)cn3)C34COC(C3)C4)cc2n2cncc12 [Ff-267, 4-amino-N-(2-oxabicyclo[2.1.1]hexan-4-yl)-N-((5-(trifluoromethyl)pyridin-2-yl)methyl)imidazo[1,5-a]quinoxaline-8-carboxamide]",100 to 1000
21,"Nc1nc2cc(F)c(C(=O)N(Cc3ccc(C(F)(F)F)cn3)C34COC(C3)C4)cc2n2cncc12 [Ff-268, 4-amino-N-(2-oxabicyclo[2.1.1]hexan-4-yl)-7-fluoro-N-((5-(trifluoromethyl)pyridin-2-yl)methyl)imidazo[1,5-a]quinoxaline-8-carboxamide]",< 100
22,"CN(C(=O)c1cc2c(cc1F)nc(N)c1cncn12)[C@@H]1COc2cc(C#N)ccc21 [Ff-269, (S)-4-amino-N-(6-cyano-2,3-dihydrobenzofuran-3-yl)-7-fluoro-N-methylimidazo[1,5-a]quinoxaline-8-carboxamide]",< 100
23,"CC1(N(Cc2ccc(C(F)(F)F)cc2F)C(=O)c2ccc3nc(N)c4cncn4c3c2)COC1 [Ff-270, 4-amino-N-(2-fluoro-4-(trifluoromethyl)benzyl)-N-(3-methyloxetan-3-yl)imidazo[1,5-a]quinoxaline-8-carboxamide]",100 to 1000
24,"COc1ccc2c(n1)CCC2N(C)C(=O)c1cc2c(cc1F)nc(N)c1cncn12 (stereo not shown) [Ff-271, 4-amino-7-fluoro-N-(2-methoxy-6,7-dihydro-5H-cyclopenta[b]pyridin-5-yl)-N-methylimidazo[1,5-a]quinoxaline-8-carboxamide]",100 to 1000
25,"Nc1nc2cc(F)c(C(=O)N(Cc3ccc(C(F)(F)F)cc3F)C34COC(C3)C4)cc2n2cncc12 [Ff-272, 4-amino-N-(2-oxabicyclo[2.1.1]hexan-4-yl)-7-fluoro-N-(2-fluoro-4-(trifluoromethyl)benzyl)imidazo[1,5-a]quinoxaline-8-carboxamide]",< 100
26,"CO[C@@H]1COCC[C@H]1N(Cc1ccc(C(F)(F)F)cc1F)C(=O)c1cc2c(cc1F)nc(N)c1cncn12 [Ff-273, 4-amino-7-fluoro-N-(2-fluoro-4-(trifluoromethyl)benzyl)-N-((3S,4R)-3-methoxytetrahydro-2H-pyran-4-yl)imidazo[1,5-a]quinoxaline-8-carboxamide]",< 100
27,"CO[C@H]1COCC[C@H]1N(Cc1ccc(C(F)(F)F)cc1F)C(=O)c1cc2c(cc1F)nc(N)c1cncn12 [Ff-274, 4-amino-7-fluoro-N-(2-fluoro-4-(trifluoromethyl)benzyl)-N-((3R,4R)-3-methoxytetrahydro-2H-pyran-4-yl)imidazo[1,5-a]quinoxaline-8-carboxamide]",< 100
28,"CN(C(=O)c1cc2c(cc1F)nc(N)c1cncn12)C1COCc2nc(Br)ccc21 (stereo not shown) [Ff-275, 4-amino-N-(2-bromo-5,8-dihydro-6H-pyrano[3,4-b]pyridin-5-yl)-7-fluoro-N-methylimidazo[1,5-a]quinoxaline-8-carboxamide]",< 100
